From paper PMC4491819, “Specificity and catalysis hardwired at the RNA–protein interface in a translational proofreading enzyme” (Nature Communications, 2015) come the findings set out here.

Data set [1] concerns the target N-terminal editing domain (NTD) of threonyl-tRNA synthetase from Aeropyrum pernix (Aeropyrum pernix). Kind of data set: crystal structure; co-crystals with the substrate analogues L-Ser3AA or L-Thr3AA, grown at 4 °C; ApNTD in P4(1)2(1)2 with one monomer in the asymmetric unit (dimer by the crystallographic twofold); MjNTD in C2 and P2(1) with six and four monomers in the asymmetric unit.

The target in the next data set is T1, PabNTD (Pyrococcus abyssi, UniProt Q9UZ14, K121M).
T1 construct: gene thrS; N-terminal editing domain, residues 1-143 of ThrRS, untagged, expressed in E. coli, homodimer; all rows are K121M
T1 sequence (Q9UZ14 1-143 K121M): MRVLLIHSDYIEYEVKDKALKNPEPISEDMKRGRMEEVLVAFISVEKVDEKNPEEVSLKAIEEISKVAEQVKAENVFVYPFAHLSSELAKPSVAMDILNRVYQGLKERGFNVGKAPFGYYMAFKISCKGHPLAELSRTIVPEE
Briefly: X-ray crystal structure. The data set is classed as binding. The following applies: editing (amino-acid/adenosine) pocket.

Data set [2] deals with T2, ApNTD (Aeropyrum pernix, UniProt Q9YFY3).
T2 construct: gene thrS2; N-terminal editing domain, residues 1-136 of ThrRS-2, untagged, expressed in E. coli, homodimer
T2 sequence (Q9YFY3 1-136): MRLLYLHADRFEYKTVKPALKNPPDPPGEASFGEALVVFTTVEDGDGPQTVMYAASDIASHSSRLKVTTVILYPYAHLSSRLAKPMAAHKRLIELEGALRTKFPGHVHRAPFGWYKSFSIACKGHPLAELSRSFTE
Kind of data set: ITC (also crystal structure). Type of data set: binding.

Data set [3] has as its target T3, ApNTD (Aeropyrum pernix, UniProt Q9YFY3, K116M).
T3 construct: gene thrS2; N-terminal editing domain, residues 1-136 of ThrRS-2, untagged, expressed in E. coli, homodimer
Briefly: X-ray crystal structure. The data set is classed as binding. The following applies: editing (amino-acid/adenosine) pocket.

The target of data set [4] is T4, ApNTD (Aeropyrum pernix, UniProt Q9YFY3, Y115A).
T4 construct: gene thrS2; N-terminal editing domain, residues 1-136 of ThrRS-2, untagged, expressed in E. coli, homodimer
T4 sequence (Q9YFY3 1-136 Y115A): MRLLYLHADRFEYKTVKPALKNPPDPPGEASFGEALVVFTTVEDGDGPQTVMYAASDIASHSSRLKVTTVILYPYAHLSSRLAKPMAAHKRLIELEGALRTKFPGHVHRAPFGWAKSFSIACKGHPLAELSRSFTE
Briefly: X-ray crystal structure. Type of data set: binding. The following applies: editing (amino-acid/adenosine) pocket.

The target of data set [5] is T5, ApNTD (Aeropyrum pernix, UniProt Q9YFY3, E129A).
T5 construct: gene thrS2; N-terminal editing domain, residues 1-136 of ThrRS-2, untagged, expressed in E. coli, homodimer
T5 sequence (Q9YFY3 1-136 E129A): as the sequence (Q9YFY3 1-136 Y115A) above, with A115Y, E129A counted along it
Briefly: X-ray crystal structure. The data set is classed as binding. The following applies: editing (amino-acid/adenosine) pocket.

Data set [6] deals with the molecule itself. Kind of data set: crystal structure; co-crystals with the substrate analogues L-Ser3AA or L-Thr3AA, grown at 4 °C; ApNTD in P4(1)2(1)2 with one monomer in the asymmetric unit (dimer by the crystallographic twofold); MjNTD in C2 and P2(1) with six and four monomers in the asymmetric unit.

T3 sequence (Q9YFY3 1-136 K116M): as the sequence (Q9YFY3 1-136 Y115A) above, with A115Y, K116M counted along it

Broadly, the stoichiometry N is the number of molecules, sites or subunits per partner or assembly. The molecule “N-terminal editing domain (NTD) of threonyl-tRNA synthetase from Aeropyrum pernix (domain or fragment)” had a stoichiometry N in data set [1] of 2.

In general, Kd refers to the free concentration of one partner at which half of the binding sites on the other are occupied at equilibrium, for simple one-to-one binding. A high value points to a looser complex. On to `Nc1ncnc2c1ncn2[C@@H]1O[C@H](CO)[C@@H](NC(=O)[C@@H](N)CO)[C@H]1O` [L-seryl-3′-aminoadenosine], for which the X-ray crystal structure entry at PabNTD is “We solved the crystal structure of K121M mutant of PabNTD”. In addition, the affinity at ApNTD [2], expressed as Kd, was 1 ± 0.3 µM.

Turning to `C[C@@H](O)[C@H](N)C(=O)N[C@H]1[C@@H](O)[C@H](n2cnc3c(N)ncnc32)O[C@@H]1CO` [L-threonyl-3′-aminoadenosine], the X-ray crystal structure result at ApNTD [3] was “K116M mutant of ApNTD with L-Ser3AA and L-Thr3AA”; at PabNTD, “We solved the crystal structure of K121M mutant of PabNTD”; on ApNTD [4], “no such loosening was observed in the case of Y115A”; on ApNTD [5], “E129A mutant also showed a loosening of interactions upon L-Thr3AA binding”. On ApNTD [2], this molecule gave a dissociation constant (Kd) of 13.4 ± 2.9 µM.

B1: N-terminal editing domain (NTD) of threonyl-tRNA synthetase from Methanococcus jannaschii (domain or fragment, UniProt Q58597 5-143, looked up)
chain: LIHSDYLEFEAKEKTKIAEETENLKGKLDECLACFIAVEREDENNPEGTAIGAVEEIEKVANQLKVNNIVVYPYAHLSSDLSSPETAVKVLKDIESILKERGYNVLRAPFGWYKAFKISCKGHPLSELSRKIVAKEEKK
notes: N-terminal editing domain of ThrRS of Methanococcus jannaschii, residues 5-143; untagged construct (stop codon in the reverse primer); Crystallised with the substrate analogues L-Ser3AA or L-Thr3AA; also called MjNTD; MjNTD wild type
On to B1, for which the “stoichiometry N” value in data set [6] turned out to be 2.
